Reference: patent EP0392384B1, “Targeted forms of methyltrithio antitumor agents” (AMERICAN CYANAMID COMPANY, priority 1989, dated 1990)

Columns and labels:
[1] = system: lymphocytic leukemia P388; experiment: Lymphocytic Leukemia P388 Test; assay type: in vivo, BDF1 female mice; settings: for T/Cx100 %: survival time treated/control
Text: These have been reported in "Cancer Chemotherapy Reports", Part III, Vol. 3, No. 2 (1972), Geran, et. al. These protocols have established standardized screening tests which are generally followed in the field of testing for antitumor agents. Of these systems, lymphocytic leukemia P388, melanotic melanoma B16, L1210 leukemia and colon 26 adenocarcinoma are particularly significant to the present invention. These neoplasms are utilized for testing as transplantable tumors in mice.
The animals used were BDF1 female mice. There were 5 or 6 mice per test group. The tumor transplant was by intraperitoneal injection of 0.5 ml of dilute ascitic fluid containing 1 x 10^6 cells of lymphocytic leukemia P388 on day zero. The test compounds were administered intraperitoneally at a volume of 0.5 ml in sterile, pyrogen free saline on days 1, 5 and 9 (relative to tumor inoculation) at the indicated doses. The mice were weighed and survivors recorded on a regular basis for 30 days. The median survival time and the ratio of survival time for treated (T)/control (C) animals were calculated. Values of T/C greater than or equal to 125 are considered to reflect significant antitumor activity.

[2] = system: human colon cancer cell line LS174T; experiment: In vivo antitumor test, human tumor xenograft LS174T; design: species or system athymic (nude) mice; settings: no MoAb, iv, three injections started on day 8, day 21 post-implantation
[3] = system: human Burkitt lymphoma cell line Raji TC; experiment: In vivo antitumor test, human tumor xenograft Raji; design: species or system athymic (nude) mice; settings: no MoAb, iv, three injections starting on day 7, day 35 post-implantation
[4] = system: human breast cancer cell line MX-1; experiment: In vivo antitumor test, human tumor xenograft MX-1; design: species or system athymic (nude) mice; settings: no MoAb, iv, three injections starting on day 2, day 42 post-implantation
[5] = dose 0.0006 mg/kg intraperitoneally on days 1, 5 and 9
[6] = dose 0.00125 mg/kg intraperitoneally on days 1, 5 and 9
[7] = dose 0.0025 mg/kg intraperitoneally on days 1, 5 and 9
[8] = dose 0.005 mg/kg intraperitoneally on days 1, 5 and 9
[9] = dose 0.0003 mg/kg intraperitoneally on days 1, 5 and 9
[10] = dose 0.010 mg/kg intraperitoneally on days 1, 5 and 9
[11] = dose 0.020 mg/kg intraperitoneally on days 1, 5 and 9
[12] = dose 0.040 mg/kg intraperitoneally on days 1, 5 and 9
[13] = dose 0.080 mg/kg intraperitoneally on days 1, 5 and 9

How did the “Median Survival” value [1, 5] turn out when “3-Mercaptobutyryl hydrazide disulfide of LL-E33288γ1-I” was run?
Its value is 19.5 days.

What about the T/Cx100 % [1, 5] of the same compound?
Its T/Cx100 % is 130%.

And the “Median Survival” value [1, 6]?
Its value is 21.0 days.

And the T/Cx100 % [1, 6]?
The T/Cx100 % was 140%.

And the “Median Survival” value [1, 7]?
The value was 23.0 days.

And the T/Cx100 % [1, 7]?
Its T/Cx100 % is 153%.

And the “Median Survival” value [1, 8]?
Its value is 28.5 days.

And the T/Cx100 % [1, 8]?
The T/Cx100 % was 190%.

Which “Median Survival” value [1, 9] does the source give for “3-Mercaptoisovaleryl hydrazide disulfide of LL-E33288q1-I” here?
Its value is 14.0 days.

What about the T/Cx100 % [1, 9] of the same compound?
Its T/Cx100 % is 133%.

And the “Median Survival” value [1, 5]?
Its value is 13.0 days.

And the T/Cx100 % [1, 5]?
Its T/Cx100 % is 124%.

And the “Median Survival” value [1, 6]?
Its value is 16.0 days.

And the T/Cx100 % [1, 6]?
The T/Cx100 % was 152%.

And the “Median Survival” value [1, 7]?
The value was 17.0 days.

What about the T/Cx100 % [1, 7] of the same compound?
The T/Cx100 % was 162%.

What about the “Median Survival” value [1, 8] of the same compound?
Its value is 18.0 days.

What about the T/Cx100 % [1, 8] of the same compound?
Its T/Cx100 % is 171%.

What about the “Median Survival” value [1, 10] of the same compound?
The value was 26.5 days.

And the T/Cx100 % [1, 10]?
Its T/Cx100 % is 252%.

Which T/Cx100 % [1, 7] does the source give for “3-Mercaptopropionic Acid Disulfide of LL-E33288γ1^I” here?
Its T/Cx100 % is 125%.

And the T/Cx100 % [1, 8]?
Its T/Cx100 % is 145%.

Which results are given for “3-Mercaptopropionyl hydrazide disulfide of LL-E33288α2-I”?
Median Survival [1, 6]: 18.5 days; T/Cx100 % [1, 6]: 161%; Median Survival [1, 7]: 18.5 days; T/Cx100 % [1, 7]: 161%; Median Survival [1, 8]: 21.0 days; T/Cx100 % [1, 8]: 183%; Median Survival [1, 10]: 26.5 days; T/Cx100 % [1, 10]: 230%

What does the source list for “3-Mercaptopropionyl hydrazide disulfide of N-acetyl LL-E33288γ1^I”?
Median Survival [1, 11]: 15.0 days; T/Cx100 % [1, 11]: 125%; Median Survival [1, 12]: 18.0 days; T/Cx100 % [1, 12]: 150%; Median Survival [1, 13]: 21.0 days; T/Cx100 % [1, 13]: 175%

What does the source list for `CC[C@]1(O)C[C@H]2CN(CCc3c([nH]c4ccccc34)[C@@](C(=O)OC)(c3cc4c(cc3OC)N(C=O)[C@H]3[C@@](O)(C(=O)OC)[C@H](OC(C)=O)[C@]5(CC)C=CCN6CC[C@]43[C@@H]65)C2)C1` [Vincristine]?
S/T ([2]; Drug 20 mcg): 6/6; Tumor Size (T/C)%control ([2]; Drug 20 mcg): 23 %control

Which S/T ([3]; Drug 1.0 mcg) does the source give for “Hydrazide of 3-mercaptopropionic acid disulfide of N-acetyl LL-E33288δ1^I [Hydrazide alone]” here?
The S/T was 6/6.

What about the “Tumor Size (T/C)%control” value ([3]; Drug 1.0 mcg) of the same compound?
The value was 517 %control.

What about the S/T ([4]; Drug 2.0 mcg) of the same compound?
Its S/T is 3/6.

What about the “Tumor Size (T/C)%control” value ([4]; Drug 2.0 mcg) of the same compound?
Its value is 71 %control.

For “N-acetyl LL-E33288δ1^I [reference compound]”, which S/T ([3]; Drug 0.5 mcg) is on record?
The S/T was 6/6.

And the “Tumor Size (T/C)%control” value ([3]; Drug 0.5 mcg)?
The value was 226 %control.

And the S/T ([4]; Drug 1.0 mcg)?
Its S/T is 2/6.

And the “Tumor Size (T/C)%control” value ([4]; Drug 1.0 mcg)?
Its value is 46 %control.

And the S/T ([2]; Drug 2.0 mcg)?
Its S/T is 1/6.

And the “Tumor Size (T/C)%control” value ([2]; Drug 2.0 mcg)?
The value was 32 %control.
